Marks after values point to notes of the source that are not given here.
System: brain of rats subjected to severe traumatic brain injury (sTBI)
Assay: HPLC of purine-pyrimidine metabolites (energy state, oxidative/nitrosative stress) in brain after sTBI (Example 1)
Assay type: in vivo, rat
Details: sacrifice day 7
Description: They were divided into three groups:
1) n=6 animals subjected to sTBI, with drug administration after 30 minutes and sacrifice at 2 days post-TBI (Acute phase 1)
2) n=6 animals subjected to sTBI, with drug administration after 30 minutes and sacrifice at 7 days post-TBI (Acute phase 2).
3) n=6 animals subjected to sTBI, with drug administration after 3 days and sacrifice at 7 days post-TBI (Chronic phase).
The drug treatment was a subcutaneous injection of 0.5 ml of LMW-DS (15 mg/kg) and administered according to the aforementioned schematic protocol.
After the wet weight (w.w.) determination, tissue preparation was affected as previously disclosed (Tavazzi et al., Neurosurgery. 2005; 56: 582-589; Vagnozzi et al., Neurosurgery. 2007; 61: 379-388; Tavazzi et al., Neurosurgery. 2007; 61: 390-395; Amorini et al., J Cell Mol Med. 2017; 21: 530-542.). Briefly, whole brain homogenization was performed with 7 ml of ice-cold, nitrogen-saturated, precipitating solution composed by CH3CN+10 mM KH2PO4, pH 7.40, (3:1; v:v), and using an Ultra-Turrax set at 24,000 rpm/min (Janke & Kunkel, Staufen, Germany). After centrifugation at 20,690×g, for 10 min at 4° C., the clear supernatants were saved, pellets were supplemented with 3 ml of the precipitating solution and homogenized again as described above. A second centrifugation was performed (20,690×g, for 10 min at 4° C.), pellets were saved, supernatants combined with those previously obtained, extracted by vigorous agitation with a double volume of HPLC-grade CHCl3 and centrifuged as above. The upper aqueous phases containing water-soluble low-molecular weight compounds were collected, subjected to chloroform washings for two more times (this procedure allowed the removal of all the organic solvent and of any lipid soluble compound from the buffered tissue extracts), adjusted in volumes with 10 mM KH2PO4, pH 7.40, to have ultimately aqueous 10% tissue homogenates and saved at −80° C. until assayed.
Aliquots of each deproteinized tissue samples were filtered through a 0.45 μm HV Millipore filter and loaded (200 μl) onto a Hypersil C-18, 250×4.6 mm, 5 μm particle size column, provided with its own guard column (Thermo Fisher Scientific, Rodano, Milan, Italy) and connected to an HPLC apparatus consisting of a Surveyor System (Thermo Fisher Scientific, Rodano, Milan, Italy) with a highly sensitive diode array detector (equipped with a 5 cm light path flow cell) and set up between 200 and 300 nm wavelength. Data acquisition and analysis were performed by a PC using the ChromQuest® software package provided by the HPLC manufacturer.
Metabolites belonging to the purine-pyrimidine profiles (listed below) and related to tissue energy state, mitochondrial function and relative to oxidative-nitrosative stresses were separated, in a single chromatographic run, according to slight modifications of existing ion-pairing HPLC methods (Lazzarino et al., Anal Biochem. 2003; 322: 51-59; Tavazzi et al., Clin Biochem. 2005; 38: 997-1008). Assignment and calculation of the compounds of interest in chromatographic runs of tissue extracts were carried out at the proper wavelengths (206, 234 and 260 nm) by comparing retention times, absorption spectra and areas of peaks with those of peaks of chromatographic runs of freshly-prepared ultra-pure standard mixtures with known concentrations. […]

[1] = Acute phase 2: 15 mg/kg s.c. 30 min post-sTBI
[2] = Chronic phase: 15 mg/kg s.c. 3 days post-sTBI

sodium salt of dextran sulfate [LMW-DS]
NO2 brain concentration [1]: 226.40 ± 30.95^b nmol/g (w.w.)
NO3 brain concentration [1]: 198.56 ± 25.93^e, i nmol/g (w.w.)
UDP brain concentration [1]: 40.38 ± 8.50^a, i nmol/g (w.w.)
UDP-Gal brain concentration [1]: 145.14 ± 27.76 nmol/g (w.w.)
UDP-GalNac brain concentration [1]: 19.90 ± 3.12^a, e nmol/g (w.w.)
UDP-Glc brain concentration [1]: 44.44 ± 7.59^j nmol/g (w.w.)
UDP-GlcNac brain concentration [1]: 130.65 ± 28.41^a nmol/g (w.w.)
UMP brain concentration [1]: 138.73 ± 32.01^b nmol/g (w.w.)
UTP brain concentration [1]: 146.71 ± 32.68^e nmol/g (w.w.)
acetyl-CoA brain concentration [1]: 36.86 ± 4.11^e nmol/g (w.w.)
adenine brain concentration [1]: 58.16 ± 6.36^a, f nmol/g (w.w.)
ascorbic acid brain concentration [1]: 3512.58 ± 224.62^a, e nmol/g (w.w.)
creatinine brain concentration [1]: 37.27 ± 5.82^a, e, j nmol/g (w.w.)
cytidine brain concentration [1]: 16.18 ± 4.21^e nmol/g (w.w.)
cytosine brain concentration [1]: 15.70 ± 4.10^f nmol/g (w.w.)
guanine brain concentration [1]: 4.73 ± 1.07 nmol/g (w.w.)
guanosine brain concentration [1]: 17.90 ± 3.24^j nmol/g (w.w.)
hypoxanthine brain concentration [1]: 12.90 ± 2.58^a, j nmol/g (w.w.)
inosine brain concentration [1]: 85.52 ± 20.36^e nmol/g (w.w.)
malonyl-CoA brain concentration [1]: 11.29 ± 2.27^b nmol/g (w.w.)
orotic acid brain concentration [1]: 13.34 ± 3.65^a nmol/g (w.w.)
thymidine brain concentration [1]: 0.49 ± 0.20^f nmol/g (w.w.)
uracil brain concentration [1]: 19.40 ± 7.52^a, e nmol/g (w.w.)
uric acid brain concentration [1]: 19.17 ± 2.15^a, h, i nmol/g (w.w.)
uridine brain concentration [1]: 63.02 ± 9.66^b, e nmol/g (w.w.)
xanthine brain concentration [1]: 10.41 ± 2.11^f nmol/g (w.w.)
β-pseudouridine brain concentration [1]: 13.26 ± 3.16^a, e, j nmol/g (w.w.)
ADO brain concentration [2]: 89.97 ± 12.98^a nmol/g (w.w.)
ADP brain concentration [2]: 315.53 ± 46.53^a nmol/g (w.w.)
ADP-ribose brain concentration [2]: 173.94 ± 8.45^a nmol/g (w.w.)
AMP brain concentration [2]: 90.01 ± 21.24^a nmol/g (w.w.)
ATP brain concentration [2]: 1381.03 ± 212.64^a nmol/g (w.w.)
CDP brain concentration [2]: 23.55 ± 6.45^a nmol/g (w.w.)
CDP choline brain concentration [2]: 8.37 ± 2.19 nmol/g (w.w.)
CMP brain concentration [2]: 20.51 ± 3.73^a, f nmol/g (w.w.)
CTP brain concentration [2]: 25.23 ± 2.93^a, f nmol/g (w.w.)
CoA-SH brain concentration [2]: 27.58 ± 6.24^f nmol/g (w.w.)
GDP brain concentration [2]: 173.05 ± 28.68^a, e nmol/g (w.w.)
GDP glucose brain concentration [2]: 43.85 ± 5.06^b nmol/g (w.w.)
GMP brain concentration [2]: 148.56 ± 31.21^a nmol/g (w.w.)
GSH brain concentration [2]: 2608.67 ± 358.07^a, e nmol/g (w.w.)
GSSG brain concentration [2]: 231.08 ± 44.34^b, f nmol/g (w.w.)
GTP brain concentration [2]: 290.92 ± 34.68^a, f nmol/g (w.w.)
IMP brain concentration [2]: 99.29 ± 13.82^a nmol/g (w.w.)
MDA brain concentration [2]: 11.62 ± 3.90^a, e nmol/g (w.w.)
NAA brain concentration [2]: 6375.36 ± 974.12^a, e nmol/g (w.w.)
NADH brain concentration [2]: 11.78 ± 3.32^e nmol/g (w.w.)
NADPH brain concentration [2]: 7.34 ± 2.65^f nmol/g (w.w.)
NADP^+ brain concentration [2]: 16.44 ± 2.66^a, f nmol/g (w.w.)
NAD^+ brain concentration [2]: 301.13 ± 29.90^a nmol/g (w.w.)
NO2 brain concentration [2]: 217.67 ± 55.04^a nmol/g (w.w.)
NO3 brain concentration [2]: 241.27 ± 18.84^e nmol/g (w.w.)
UDP brain concentration [2]: 57.40 ± 5.88^a, f nmol/g (w.w.)
UDP-Gal brain concentration [2]: 122.29 ± 12.15 nmol/g (w.w.)
UDP-GalNac brain concentration [2]: 21.84 ± 2.80^a, e nmol/g (w.w.)
UDP-Glc brain concentration [2]: 35.79 ± 3.45^b nmol/g (w.w.)
UDP-GlcNac brain concentration [2]: 129.42 ± 15.88^b nmol/g (w.w.)
UMP brain concentration [2]: 103.11 ± 29.79 nmol/g (w.w.)
UTP brain concentration [2]: 136.80 ± 33.25^f nmol/g (w.w.)
acetyl-CoA brain concentration [2]: 35.68 ± 6.55^e nmol/g (w.w.)
adenine brain concentration [2]: 52.94 ± 8.59^a, f nmol/g (w.w.)
ascorbic acid brain concentration [2]: 3375.03 ± 856.41^a, e nmol/g (w.w.)
creatinine brain concentration [2]: 51.25 ± 10.17^a, f nmol/g (w.w.)
cytidine brain concentration [2]: 14.71 ± 2.83^e nmol/g (w.w.)
cytosine brain concentration [2]: 15.58 ± 2.50^b, f nmol/g (w.w.)
guanine brain concentration [2]: 5.31 ± 1.04^b nmol/g (w.w.)
guanosine brain concentration [2]: 28.87 ± 7.60^a, f nmol/g (w.w.)
hypoxanthine brain concentration [2]: 17.97 ± 4.49^a nmol/g (w.w.)
inosine brain concentration [2]: 105.81 ± 25.57^f nmol/g (w.w.)
malonyl-CoA brain concentration [2]: 10.00 ± 1.95^b nmol/g (w.w.)
orotic acid brain concentration [2]: 12.05 ± 1.50^a nmol/g (w.w.)
thymidine brain concentration [2]: 0.71 ± 0.11 nmol/g (w.w.)
uracil brain concentration [2]: 16.57 ± 2.99^a, f nmol/g (w.w.)
uric acid brain concentration [2]: 27.77 ± 3.60^a nmol/g (w.w.)
uridine brain concentration [2]: 63.28 ± 3.37^f nmol/g (w.w.)
xanthine brain concentration [2]: 9.35 ± 0.83^f nmol/g (w.w.)
β-pseudouridine brain concentration [2]: 18.62 ± 2.80^a nmol/g (w.w.)

Reference: patent US20220128542A1, “TREATMENT EFFICIENCY EVALUATION” (TX MEDIC AB, priority 2019, published 2022)
